Results on 24 compounds are retold here after patent US12668599B2, “Heterobifunctional compounds and methods of treating disease” (Halda Therapeutics OpCo, Inc., priority 2023, dated 2026).

For experiment [1], the system named is T-Rex 293 cell line SC3 cells having increased expression of androgen receptor protein due to exposure to doxycycline. Briefly: Cellular growth inhibition, T-Rex 293 SC3 cells with doxycycline-induced androgen receptor (CellTiter-Glo 2.0, 72 hours). Type of experiment: cell-based. Particulars: for GI50: T-Rex 293 SC3 cells with 10 ng/ml doxycycline (increased androgen receptor expression), 72 hours, CellTiter-Glo 2.0. In general terms: ATP-based viability assays read luminescence as a measure of living cells.

The subject of experiment [2] is T-Rex 293 cell line SC3 cells lacking increased expression of androgen receptor protein. Briefly: Cellular growth inhibition, T-Rex 293 SC3 cells without doxycycline (CellTiter-Glo 2.0, 72 hours). In kind it is cell-based. To be noted: T-Rex 293 SC3 cells not exposed to doxycycline (no increased androgen receptor expression).
The test system of a further experiment is VCaP cells. Nature of the experiment: Cellular growth inhibition assay for VCaP cells (CellTiter-Glo 2.0, 72 hours). To be noted: for GI50: CellTiter-Glo 2.0. Type of experiment: cell-based, human.

The structures appear in SMILES notation.

The GI50 is the concentration giving 50% growth inhibition. High values mean less potent growth inhibition, low ones more potent growth inhibition.

`COc1cc(O[C@H]2CC[C@H](NC(=O)c3ccc(N4CCC5(CCC(c6ccc(C7=N[C@@H](C)c8nnc(C)n8-c8sc(C)c(C)c87)c(C)c6)CC5)C4)nn3)CC2)ccc1C#N` (some centres unmarked) [Compound I-63]: the GI50 in experiment [1] was less than 500 nM; in experiment [2] (72 h), less than 500 nM; with VCaP cells (Homo sapiens, VCaP, 72 h), less than 500 nM.
For `COc1cc(O[C@H]2CC[C@H](NC(=O)c3ccc(N4CCC5(CCC(c6ccc(C7=N[C@@H](C)c8nnc(C)n8-c8sc(C)c(C)c87)c(Cl)c6)CC5)C4)nn3)CC2)ccc1C#N` (some centres unmarked) [Compound I-65], the 50% growth inhibitory concentration (GI50) in experiment [1] was less than 500 nM; in experiment [2] (72 h), greater than 3000 nM; in the experiment on VCaP cells (Homo sapiens, VCaP, 72 h) it was 500 to 1500 nM.
As for `COc1cc(O[C@H]2CC[C@H](NC(=O)c3ccc(N4CCC5(CCC(c6ccc(C7=N[C@@H](C)c8nnc(C)n8-c8sc(C)c(C)c87)cc6OC)CC5)C4)nn3)CC2)ccc1C#N` (some centres unmarked) [Compound I-67], the 50% growth inhibitory concentration (GI50) (in experiment [1]; in experiment [2]; in the experiment on VCaP cells (72 hours)) was less than 500 nM in each case.
In the case of `COc1cc(O[C@H]2CC[C@H](NC(=O)c3ccc(N4CCC5(CCC(c6ccc(C7=N[C@@H](C)c8nnc(C)n8-c8sc(C)c(C)c87)c(OC)c6)CC5)C4)nn3)CC2)ccc1C#N` (some centres unmarked) [Compound I-68], the GI50 is less than 500 nM in experiment [1]; less than 500 nM in experiment [2] (72 h); less than 500 nM in the experiment with VCaP cells (Homo sapiens, VCaP, 72 h).
In the case of `COc1cc(O[C@H]2CC[C@H](NC(=O)c3ccc(N4CCC5(CCC(c6ccc(C7=N[C@@H](C)c8nnc(C)n8-c8sc(C)c(C)c87)c(OC)c6)CC5)C4)nn3)CC2)ccc1C#N` (some centres unmarked) [Compound I-69], the GI50 (in experiment [1]; in experiment [2]; with VCaP cells (72 hours)) was less than 500 nM in each case.
`COc1cc(O[C@H]2CC[C@H](NC(=O)c3ccc(N4CCC5(CCN(c6ccc(C7=N[C@@H](C)c8nnc(C)n8-c8sc(C)c(C)c87)cc6)CC5)C4)nn3)CC2)ccc1C#N` [Compound I-70]: the 50% growth inhibitory concentration (GI50) in experiment [1] is less than 500 nM; in experiment [2] (72 h), less than 500 nM; in the experiment with VCaP cells (Homo sapiens, VCaP, 72 h), less than 500 nM.
In the case of `COc1cc(O[C@H]2CC[C@H](NC(=O)c3ccc(N4CCC5(CCN(c6ccc(C7=N[C@@H](C)c8nnc(C)n8-c8sc(C)c(C)c87)cc6)CC5)C4)nn3)CC2)ccc1C#N` [Compound I-71], the GI50 (in experiment [1]; in experiment [2]; in the experiment on VCaP cells (72 hours)) was less than 500 nM throughout.
Regarding `COc1cc(O[C@H]2CC[C@H](NC(=O)c3ccc(N4CCC5(CCN(c6ccc(C7=N[C@@H](C)c8nnc(C)n8-c8sc(C)c(C)c87)c(C)c6)CC5)C4)nn3)CC2)ccc1C#N` [Compound I-72], the GI50 in experiment [1] was less than 500 nM; in experiment [2] (72 h), less than 500 nM; in the experiment on VCaP cells (Homo sapiens, VCaP, 72 h), less than 500 nM.
Regarding `COc1cc(O[C@H]2CC[C@H](NC(=O)c3ccc(N4CCC5(CCN(c6ccc(C7=N[C@@H](C)c8nnc(C)n8-c8sc(C)c(C)c87)cc6Cl)CC5)C4)nn3)CC2)ccc1C#N` [Compound I-73, 6-[8-[2-chloro-4-[(9S)-4,5,9,13-tetramethyl-3-thia-1,8,11,12-tetrazatricyclo[8.3.0.0^2,6]trideca-2 (6),4,7,10,12-pentaen-7-yl]phenyl]-2,8-diazaspiro[4.5]decan-2-yl]-N-[4-(4-cyano-3-methoxy-phenoxy)cyclohexyl]pyridazine-3-carboxamide], the GI50 in experiment [1] is less than 500 nM; in experiment [2] (72 h), less than 500 nM; in the experiment with VCaP cells (Homo sapiens, VCaP, 72 h), less than 500 nM.
As to `COc1cc(O[C@H]2CC[C@H](NC(=O)c3ccc(N4CCC5(CCN(c6ccc(C7=N[C@@H](C)c8nnc(C)n8-c8sc(C)c(C)c87)c(Cl)c6)CC5)C4)nn3)CC2)ccc1C#N` [Compound I-74], the GI50 was less than 500 nM in experiment [1]; greater than 3000 nM in experiment [2] (72 h); less than 500 nM with VCaP cells (Homo sapiens, VCaP, 72 h).
For `COc1cc(O[C@H]2CC[C@H](NC(=O)c3ccc(N4CCC5(CCN(c6ccc(C7=N[C@@H](C)c8nnc(C)n8-c8sc(C)c(C)c87)c(OC)c6)CC5)C4)nn3)CC2)ccc1C#N` [Compound I-75], the 50% growth inhibitory concentration (GI50) was less than 500 nM in experiment [1]; less than 500 nM in experiment [2] (72 h); less than 500 nM in the experiment with VCaP cells (Homo sapiens, VCaP, 72 h).
Consider `COc1cc(O[C@H]2CC[C@H](NC(=O)c3ccc(N4C[C@@H]5CN(c6ccc(C7=N[C@@H](C)c8nnc(C)n8-c8sc(C)c(C)c87)cc6F)C[C@@H]5C4)nn3)CC2)ccc1C#N` [Compound I-76], for which the GI50 in experiment [1] was less than 500 nM; in experiment [2] (72 h) it was less than 500 nM; in the experiment with VCaP cells (Homo sapiens, VCaP, 72 h), less than 500 nM.
As for `COc1cc(O[C@H]2CC[C@H](NC(=O)c3ccc(N4C[C@H]5CN(c6ccc(C7=N[C@@H](C)c8nnc(C)n8-c8sc(C)c(C)c87)c(F)c6)C[C@H]5C4)nn3)CC2)ccc1C#N` [Compound I-77], the GI50 was less than 500 nM in experiment [1]; less than 500 nM in experiment [2] (72 h); less than 500 nM in the experiment with VCaP cells (Homo sapiens, VCaP, 72 h).
`COc1cc(O[C@H]2CC[C@H](NC(=O)c3ccc(N4CC56CCCCC5(CN(c5ccc(C7=N[C@@H](C)c8nnc(C)n8-c8sc(C)c(C)c87)cc5)C6)C4)nn3)CC2)ccc1C#N` (some centres unmarked) [Compound I-78]: the GI50 in experiment [1] is less than 500 nM; in experiment [2] (72 h) it was less than 500 nM; with VCaP cells (Homo sapiens, VCaP, 72 h), less than 500 nM.
With `COc1cc(O[C@H]2CC[C@H](NC(=O)c3ccc(N4CCC5(CCN(c6ccc(C7=N[C@@H](C)c8nnc(C)n8-c8sc(C)c(C)c87)cc6F)C5)C4)nn3)CC2)ccc1C#N` (stereo partly drawn) [Compound I-79, N-[4-(4-cyano-3-methoxy-phenoxy)cyclohexyl]-6-[7-[2-fluoro-4-[(9S)-4,5,9,13-tetramethyl-3-thia-1,8,11,12-tetrazatricyclo[8.3.0.0^2,6]trideca-2 (6),4,7,10,12-pentaen-7-yl]phenyl]-2,7-diazaspiro[4.4]nonan-2-yl]pyridazine-3-carboxamide], the GI50 was less than 500 nM in experiment [1]; less than 500 nM in experiment [2] (72 h); less than 500 nM in the experiment with VCaP cells (Homo sapiens, VCaP, 72 h).
Take `COc1cc(O[C@H]2CC[C@H](NC(=O)c3ccc(N4CCC5(CCN(c6ccc(C7=N[C@@H](C)c8nnc(C)n8-c8sc(C)c(C)c87)cc6F)C5)C4)nn3)CC2)ccc1C#N` (some centres unmarked) [Compound I-80]: the 50% growth inhibitory concentration (GI50) (in experiment [1]; in experiment [2]; with VCaP cells (72 hours)) was less than 500 nM each time.
Consider `COc1cc(O[C@H]2CC[C@H](NC(=O)c3ccc(N4CCC5(CCCN(c6ccc(C7=N[C@@H](C)c8nnc(C)n8-c8sc(C)c(C)c87)cc6)C5)CC4)nn3)CC2)ccc1C#N` [Compound I-81, N-((1r,4r)-4-(4-cyano-3-methoxyphenoxy)cyclohexyl)-6-(2-(4-((S)-2,3,6,9-tetramethyl-6H-thieno[3,2-f][1,2,4]triazolo[4,3-a][1,4]diazepin-4-yl)phenyl)-2,9-diazaspiro[5.5]undecan-9-yl) pyridazine-3-carboxamide], for which the 50% growth inhibitory concentration (GI50) in experiment [1] was less than 500 nM; in experiment [2] (72 h) it was less than 500 nM; in the experiment with VCaP cells (Homo sapiens, VCaP, 72 h) it was less than 500 nM.
Regarding `COc1cc(O[C@H]2CC[C@H](NC(=O)c3ccc(N4CCC5(CC4)CC(Oc4ccc(C6=N[C@@H](Cc7ncco7)c7nnc(C)n7-c7sc(C)c(C)c76)cc4)C5)nn3)CC2)ccc1C#N` [Compound I-83, N-[4-(4-cyano-3-methoxy-phenoxy)cyclohexyl]-6-[2-[4-[(9S)-4,5,13-trimethyl-9-(oxazol-2-ylmethyl)-3-thia-1,8,11,12-tetrazatricyclo[8.3.0.0^2,6]trideca-2 (6),4,7,10,12-pentaen-7-yl]phenoxy]-7-azaspiro[3.5]nonan-7-yl]pyridazine-3-carboxamide], the “Ratio of GI50's” value in experiment [1] (GI50 of the top compound in the pair divided by GI50 of the lower compound, T-Rex 293 SC3 cells with doxycycline-induced androgen receptor) was 1; in the experiment with VCaP cells (GI50 of the top compound in the pair divided by GI50 of the lower compound), 1. Also, the GI50 in experiment [1] was less than 500 nM; in experiment [2] (72 h) it was less than 500 nM; in the experiment on VCaP cells (Homo sapiens, VCaP, 72 h), less than 500 nM.
With `COc1cc(O[C@H]2CC[C@H](NC(=O)c3ccc(N4CCC5(CCC(c6ccc(C7=N[C@@H](C)c8nnc(C)n8-c8sc(C)c(C)c87)cc6Cl)CC5)C4)nn3)CC2)ccc1C#N` (some centres unmarked) [Compound I-84], the GI50 in experiment [1] is less than 500 nM; in experiment [2] it was less than 500 nM; in the experiment with VCaP cells (Homo sapiens, VCaP, 72 h) it was less than 500 nM.
For `COc1cc(O[C@H]2CC[C@H](NC(=O)c3ccc(N4CCC5(CCC(c6ccc(C7=N[C@@H](C)c8nnc(C)n8-c8sc(C)c(C)c87)cc6Cl)CC5)C4)nn3)CC2)ccc1C#N` (some centres unmarked) [Compound I-85], the GI50 in experiment [1] was less than 500 nM; in experiment [2], greater than 3000 nM; with VCaP cells (72 hours), less than 500 nM.
Regarding `COc1cc(O[C@H]2CC[C@H](NC(=O)c3ccc(N4CCC5(CCC(c6ccc(C7=N[C@@H](C)c8nnc(C)n8-c8sc(C)c(C)c87)cn6)CC5)C4)nn3)CC2)ccc1C#N` (stereo partly drawn) [Compound I-86, N-[4-(4-cyano-3-methoxy-phenoxy)cyclohexyl]-6-[8-[5-[(9S)-4,5,9,13-tetramethyl-3-thia-1,8,11,12-tetrazatricyclo[8.3.0.0^2,6]trideca-2 (6),4,7,10,12-pentaen-7-yl]-2-pyridyl]-2-azaspiro[4.5]decan-2-yl]pyridazine-3-carboxamide], the GI50 was less than 500 nM in experiment [1]; greater than 3000 nM in experiment [2]; less than 500 nM in the experiment on VCaP cells (Homo sapiens, VCaP, 72 h).
On to `COc1cc(O[C@H]2CC[C@H](NC(=O)c3ccc(N4CCC5(CCC(c6ccc(C7=N[C@@H](C)c8nnc(C)n8-c8sc(C)c(C)c87)cn6)CC5)C4)nn3)CC2)ccc1C#N` (some centres unmarked) [Compound I-87], for which the GI50 (in experiment [1]; in experiment [2]; with VCaP cells (72 hours)) was less than 500 nM throughout.
In the case of `COc1cc(O[C@H]2CC[C@H](NC(=O)c3ccc(N4CCC5(CCC(c6ccc(C7=N[C@@H](C)c8nnc(C)n8-c8sc(C)c(C)c87)nc6)CC5)C4)nn3)CC2)ccc1C#N` (some centres unmarked) [Compound I-88], the GI50 in experiment [1] was less than 500 nM; in experiment [2] (72 h) it was less than 500 nM; in the experiment with VCaP cells (Homo sapiens, VCaP, 72 h), less than 500 nM.
For the compound `COc1cc(O[C@H]2CC[C@H](NC(=O)c3ccc(N4CCC5(CCC(c6ccc(C7=N[C@@H](C)c8nnc(C)n8-c8sc(C)c(C)c87)nc6)CC5)C4)nn3)CC2)ccc1C#N` (some centres unmarked) [Compound I-89], the GI50 in experiment [1] is less than 500 nM; in experiment [2], less than 500 nM; in the experiment with VCaP cells (72 hours), 500 to 1500 nM.
